Read-outs that look alike come from different tables or passages of the source.
Molecular target: wild-type human cardiac sodium channel, hNav1.5 (Homo sapiens, UniProt Q14524)
Assay: Late INa screening assay (late sodium current, PatchXpress whole cell patch clamp)
Format: cell-based
Conditions: read-out: Late INa % blk

Chain of wild-type human cardiac sodium channel, hNav1.5 (Q14524 whole entry): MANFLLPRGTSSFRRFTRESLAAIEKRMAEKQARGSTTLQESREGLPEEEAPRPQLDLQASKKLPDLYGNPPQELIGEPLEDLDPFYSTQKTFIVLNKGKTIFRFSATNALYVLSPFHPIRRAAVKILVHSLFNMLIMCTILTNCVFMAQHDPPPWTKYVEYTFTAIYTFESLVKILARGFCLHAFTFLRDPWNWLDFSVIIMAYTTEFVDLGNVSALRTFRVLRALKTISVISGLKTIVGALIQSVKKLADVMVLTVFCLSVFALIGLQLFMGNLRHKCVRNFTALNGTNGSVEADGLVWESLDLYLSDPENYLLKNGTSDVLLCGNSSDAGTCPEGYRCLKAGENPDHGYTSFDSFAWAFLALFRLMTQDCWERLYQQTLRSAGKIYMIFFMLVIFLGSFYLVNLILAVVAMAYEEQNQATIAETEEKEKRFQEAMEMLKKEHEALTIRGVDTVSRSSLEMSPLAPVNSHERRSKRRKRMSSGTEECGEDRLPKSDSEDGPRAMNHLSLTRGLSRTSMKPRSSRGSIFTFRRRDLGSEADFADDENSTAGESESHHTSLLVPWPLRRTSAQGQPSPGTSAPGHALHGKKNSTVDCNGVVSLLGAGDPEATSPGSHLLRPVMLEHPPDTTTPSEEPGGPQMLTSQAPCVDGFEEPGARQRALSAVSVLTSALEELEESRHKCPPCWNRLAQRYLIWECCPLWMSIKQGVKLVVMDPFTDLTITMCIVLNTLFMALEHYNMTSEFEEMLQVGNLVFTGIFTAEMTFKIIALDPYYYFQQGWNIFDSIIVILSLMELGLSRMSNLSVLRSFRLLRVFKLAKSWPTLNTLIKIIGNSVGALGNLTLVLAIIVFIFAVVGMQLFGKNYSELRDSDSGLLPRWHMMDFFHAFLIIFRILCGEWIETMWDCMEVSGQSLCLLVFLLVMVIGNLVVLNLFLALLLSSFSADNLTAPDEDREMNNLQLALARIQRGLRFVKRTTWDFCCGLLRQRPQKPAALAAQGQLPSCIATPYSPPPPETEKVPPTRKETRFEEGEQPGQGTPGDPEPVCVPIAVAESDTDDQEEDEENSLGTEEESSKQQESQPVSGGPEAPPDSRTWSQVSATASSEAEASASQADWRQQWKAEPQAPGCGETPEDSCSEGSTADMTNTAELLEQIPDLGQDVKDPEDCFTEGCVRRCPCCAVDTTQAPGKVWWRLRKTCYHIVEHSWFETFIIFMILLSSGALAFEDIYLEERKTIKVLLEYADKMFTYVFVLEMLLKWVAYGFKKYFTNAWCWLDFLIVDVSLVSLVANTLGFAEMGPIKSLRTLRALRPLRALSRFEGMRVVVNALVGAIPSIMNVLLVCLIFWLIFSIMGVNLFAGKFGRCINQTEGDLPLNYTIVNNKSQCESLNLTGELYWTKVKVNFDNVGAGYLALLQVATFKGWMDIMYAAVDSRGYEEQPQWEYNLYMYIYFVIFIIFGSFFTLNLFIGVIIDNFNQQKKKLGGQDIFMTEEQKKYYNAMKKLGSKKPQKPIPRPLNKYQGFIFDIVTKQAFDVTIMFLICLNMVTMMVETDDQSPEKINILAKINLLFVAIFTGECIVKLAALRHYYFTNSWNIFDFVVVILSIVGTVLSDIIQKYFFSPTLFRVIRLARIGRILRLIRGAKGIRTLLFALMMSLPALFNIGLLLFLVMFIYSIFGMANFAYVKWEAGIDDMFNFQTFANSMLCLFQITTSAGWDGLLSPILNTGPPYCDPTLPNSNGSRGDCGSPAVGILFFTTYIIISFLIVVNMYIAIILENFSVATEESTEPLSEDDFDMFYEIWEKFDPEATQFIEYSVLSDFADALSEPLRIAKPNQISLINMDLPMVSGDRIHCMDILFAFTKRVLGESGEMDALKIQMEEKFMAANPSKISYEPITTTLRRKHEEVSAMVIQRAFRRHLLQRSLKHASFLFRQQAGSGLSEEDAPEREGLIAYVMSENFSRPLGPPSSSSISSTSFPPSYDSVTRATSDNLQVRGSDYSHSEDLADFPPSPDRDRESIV

| Compound | inhibition at 10 µM (compound at 10 μM) | inhibition at 10 µM |
| --- | --- | --- |
| CCOC(=O)C1=C(C)Nc2nnnn2C1c1ccccc1-c1cncnc1 (stereo not drawn) [PT-461, ethyl 5-methyl-7-(2-(pyrimidin-5-yl)phenyl)-4,7-dihydrotetrazolo[1,5-a]pyrimidine-6-carboxylate] | 6.2% |  |
| CCOC(=O)C1=C(C)NC(C)=C(C(=O)OCC)C1c1ccoc1 [PT-120, diethyl 4-(furan-3-yl)-2,6-dimethyl-1,4-dihydropyridine-3,5-dicarboxylate] | 25.7% |  |
| COc1ccc(C2C(C(=O)OCc3ccccc3)=C(C)Nc3c(C(=O)O)cnn32)c2ccccc12 (stereo not drawn) [PT-312, 6-(benzyloxycarbonyl)-7-(4-methoxynaphthalen-1-yl)-5-methyl-4,7-dihydropyrazolo[1,5-a]pyrimidine-3-carboxylic acid] | 5.2% |  |
| CCOC(=O)C1=C(C)Nc2nnnn2C1c1ccc(C2C(C(=O)OCC)=C(C)Nc3nnnn32)cc1 (stereo not drawn) [PT-201, diethyl 7,7′-(1,4-phenylene)bis(5-methyl-4,7-dihydrotetrazolo[1,5-a]pyrimidine-6-carboxylate)] | 7.8% |  |
| CSc1ccc(C2C(C(=O)OCc3ccccc3)=C(C)Nc3nnnn32)cc1 (stereo not drawn) [PT-356, benzyl 5-methyl-7-(4-(methylthio)phenyl)-4,7-dihydrotetrazolo[1,5-a]pyrimidine-6-carboxylate] | 16.4% |  |
| CC1=C(C(=O)OC(C)C)C(c2cnn(-c3ccc(F)cc3)c2C)C(C(=O)OC(C)C)=C(C)N1 [PT-127, diisopropyl 4-(1-(4-fluorophenyl)-5-methyl-1H-pyrazol-4-yl)-2,6-dimethyl-1,4-dihydropyridine-3,5-dicarboxylate] | 1.1% |  |
| CC1=C(C(=O)OCc2ccccc2)C(c2ccc(-n3ccnc3)cc2)n2nnnc2N1 (stereo not drawn) [PT-402, benzyl 7-(4-(1H-imidazol-1-yl)phenyl)-5-methyl-4,7-dihydrotetrazolo[1,5-a]pyrimidine-6-carboxylate] | 18.3% |  |
| CCOC(=O)C1=C(C)Nc2nnnn2C1c1ccccc1OCc1cccc(C(=O)O)c1 (stereo not drawn) [PT-268, 3-((2-(6-(ethoxycarbonyl)-5-methyl-4,7-dihydrotetrazolo[1,5-a]pyrimidin-7-yl)phenoxy)methyl)benzoic acid] | 9.5% |  |
| O=C1OCC2=C1C(c1cccc3ccccc13)c1c(-c3ccco3)n[nH]c1N2 (stereo not drawn) [PT-080, 3-(furan-2-yl)-4-(naphthalen-1-yl)-7,8-dihydro-1H-furo[3,4-e]pyrazolo[3,4-b]pyridin-5(4H)-one] |  | 31.9% |
| CCOC(=O)c1c(C)nc2[nH]ncc2c1-c1ccccc1-c1cccc(C(C)=O)c1 [PT-450, ethyl 4-(3′-acetylbiphenyl-2-yl)-6-methyl-1H-pyrazolo[3,4-b]pyridine-5-carboxylate] | 7.3% |  |
| CC1=C(C(=O)OCc2ccccc2)[C@@H](c2ccccc2-c2cccc(C(N)=O)c2)n2nnnc2N1 [PT-238, (R)-benzyl 7-(3′-carbamoylbiphenyl-2-yl)-5-methyl-4,7-dihydrotetrazolo[1,5-a]pyrimidine-6-carboxylate] | 49.9% |  |
| CC1=C(C(=O)OCc2ccccc2)C(c2ccc(OCCN(C)C)cc2)n2nnnc2N1 (stereo not drawn) [PT-405, benzyl 7-(4-(2-(dimethylamino)ethoxy)phenyl)-5-methyl-4,7-dihydrotetrazolo[1,5-a]pyrimidine-6-carboxylate] | 18.4% |  |
| CCOC(=O)C1=C(C)NC(C)=C(C(=O)OCC)C1c1ccc(C(=O)O)s1 [PT-112, 5-(3,5-bis(ethoxycarbonyl)-2,6-dimethyl-1,4-dihydropyridin-4-yl)thiophene-2-carboxylic acid] | -24.9% |  |
| CCOC(=O)C1=C(C)Nc2[nH]ncc2C1c1ccccc1-c1ccc(NS(C)(=O)=O)cc1 (stereo not drawn) [PT-471, ethyl 6-methyl-4-(4′-(methylsulfonamido)biphenyl-2-yl)-4,7-dihydro-1H-pyrazolo[3,4-b]pyridine-5-carboxylate] | 30% |  |
| CCOC(=O)C1=C(C)NC(C)=C(C(=O)OCC)C1c1ccccc1-c1cccc(C#N)c1 [PT-435, diethyl 4-(3′-cyanobiphenyl-2-yl)-2,6-dimethyl-1,4-dihydropyridine-3,5-dicarboxylate] | 19.4% |  |
| CCOC(=O)C1=C(C)Nc2nnnn2C1c1ccccc1OCc1cccc(C(=O)OC)c1 (stereo not drawn) [PT-480, ethyl 7-(2-(3-(methoxycarbonyl)benzyloxy)phenyl)-5-methyl-4,7-dihydrotetrazolo[1,5-a]pyrimidine-6-carboxylate] | 5.4% |  |
| CC1=C(C(=O)OCc2ccccc2)C(c2cnc(N3CCOCC3)s2)n2nnnc2N1 (stereo not drawn) [PT-346, benzyl 5-methyl-7-(2-morpholinothiazol-5-yl)-4,7-dihydrotetrazolo[1,5-a]pyrimidine-6-carboxylate] | 23% |  |
| CCOC(=O)C1=C(C)Nc2ccnn2C1c1ccc(OC)cc1C#N (stereo not drawn) [PT-491, ethyl 7-(2-cyano-4-methoxyphenyl)-5-methyl-4,7-dihydropyrazolo[1,5-a]pyrimidine-6-carboxylate] | -0.9% |  |
| CC1=C(C(=O)OCc2ccccc2)C(c2ccccc2-c2ccc(OCc3ccccc3)cc2)n2nnnc2N1 (stereo not drawn) [PT-407, benzyl 7-(4′-(benzyloxy)biphenyl-2-yl)-5-methyl-4,7-dihydrotetrazolo[1,5-a]pyrimidine-6-carboxylate] | 10.6% |  |
| CCOC(=O)C1=C(C)Nc2nnnn2C1c1ccccc1OCc1ccc(C(=O)O)cc1 (stereo not drawn) [PT-285, 4-((2-(6-(ethoxycarbonyl)-5-methyl-4,7-dihydrotetrazolo[1,5-a]pyrimidin-7-yl)phenoxy)methyl)benzoic acid] | -2.2% |  |
| CC1=C(C(=O)OCc2ccccc2)C(c2cnc(N3CCN(C)CC3)s2)n2nnnc2N1 (stereo not drawn) [PT-341, benzyl 5-methyl-7-(2-(4-methylpiperazin-1-yl)thiazol-5-yl)-4,7-dihydrotetrazolo[1,5-a]pyrimidine-6-carboxylate] | 23.3% |  |
| CCOC(=O)C1=C(C)Nc2nnnn2C1c1ccccc1Oc1cccc(C(=O)OCC)c1 (stereo not drawn) [PT-479, ethyl 7-(2-(3-(ethoxycarbonyl)phenoxy)phenyl)-5-methyl-4,7-dihydrotetrazolo[1,5-a]pyrimidine-6-carboxylate] | 35.7% |  |
| CC1=C(C(=O)OCc2ccc(-n3cccn3)cc2)C(c2cccc3ccccc23)n2nnnc2N1 (stereo not drawn) [PT-289, 4-(1H-pyrazol-1-yl)benzyl 5-methyl-7-(naphthalen-1-yl)-4,7-dihydrotetrazolo[1,5-a]pyrimidine-6-carboxylate] | 3.3% |  |
| CCOC(=O)C1=C(C)Nc2nccn2C1c1cccc2ccccc12 (stereo not drawn) [PT-087, ethyl 7-methyl-5-(naphthalen-1-yl)-5,8-dihydroimidazo[1,2-a]pyrimidine-6-carboxylate] | 16.5% |  |
| CC1=C(C(=O)OCc2ccccc2)[C@@H](c2ccccc2-c2cccc(C#N)c2)n2nnnc2N1 [PT-239, (R)-benzyl 7-(3′-cyanobiphenyl-2-yl)-5-methyl-4,7-dihydrotetrazolo[1,5-a]pyrimidine-6-carboxylate] | 94.8% |  |
| CC1=C(C(=O)OCc2ccccc2)C(c2ccccc2-c2cnc(N)nc2)n2nnnc2N1 (stereo not drawn) [PT-375, benzyl 7-(2-(2-aminopyrimidin-5-yl)phenyl)-5-methyl-4,7-dihydrotetrazolo[1,5-a]pyrimidine-6-carboxylate] | 50.7% |  |
| CCOC(=O)C1=C(C)Nc2ccnn2C1c1cccc(Oc2ccccc2)c1 (stereo not drawn) [PT-463, ethyl 5-methyl-7-(3-phenoxyphenyl)-4,7-dihydropyrazolo[1,5-a]pyrimidine-6-carboxylate] | 42.3% |  |

Reference: patent US20090012103A1, “SUBSTITUTED HETEROCYCLIC COMPOUNDS” (priority 2007, published 2009)
